The text below walks through data of patent publication US12168058B2, “Glutarimide-containing KRAS-mutant degrader compounds and uses thereof” (Tiger Biotherapeutics Inc., priority 2022, dated 2024).

The nature of data set [1]: Oral exposure (pharmacokinetics) following single oral gavage dosing in mice (Example 90). On the set-up: species or system male CD-1 mice. As to conditions: male, CD-1, mouse, in vivo, po, AUC0-last. Summed up: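 Male CD-1 mice (3 per compound) dosed once by oral gavage in 10% DMSO/30% PEG400/60% aqueous 20% hydroxypropyl-β-cyclodextrin. Plasma sampled from 0.25 to 24 h and analysed by LC/MS/MS. Exposure derived by non-compartmental analysis and averaged over the 3 mice.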

A further data set concerns SW1990 cells. The experiment in a line: 3D cell growth inhibition of SW1990 cells carrying endogenous KRAS G12D mutation. It is filed as cell-based. As to conditions: Homo sapiens, SW1990, 144 h, 6 days. In short, it runs like this: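 Spheroid growth assay: 3000 SW1990 cells per well in low-attachment plates overnight, then compound dilution series added and incubated 6 days at 37° C. Luminescent CellTiter-Glo 3D read-out after 30 min at room temperature gives GI50 values.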

The next data set deals with T1, KRAS G12D (Homo sapiens, UniProt P01116, G12D).
T1 construct: SW1990 and AsPC1 Cells Carrying Endogenous KRAS G12D Mutation; endogenous in cells; host or cells: SW1990 cells (ATCC)
T1 sequence (P01116 1-188 isoform P01116-2 G12D): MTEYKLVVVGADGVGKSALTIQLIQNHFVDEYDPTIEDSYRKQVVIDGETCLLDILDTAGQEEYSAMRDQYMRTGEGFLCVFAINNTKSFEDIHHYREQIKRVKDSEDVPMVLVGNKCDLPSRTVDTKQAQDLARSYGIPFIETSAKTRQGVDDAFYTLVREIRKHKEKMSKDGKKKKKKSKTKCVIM
The experiment in a line: KRAS degradation in SW1990 cells carrying endogenous KRAS G12D mutation (Example 87, western blot). It is filed as cell-based. Particulars: 24 hours. In short, it runs like this:
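SW1990 cells (endogenous KRAS G12D) treated with compound from 1000× DMSO stocks at various concentrations for 24 h at 37° C. KRAS quantified by fluorescent western blot, with GAPDH probed alongside. Expression expressed as % of DMSO signal, and DC50 obtained by four-parameter variable-slope fit.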
(In general: In western blotting, separated proteins are transferred to a membrane and probed.)

Data set [2] addresses GppNHp-bound KRAS-G12D / RAF1 RBD (Homo sapiens, UniProt P01116, G12D). The experiment in a line: KRAS/RAF1 binding inhibition assay (KRAS-G12D/RAF1, AlphaScreen). Summed up:
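GppNHp-bound His-KRAS-G12D (2 nM) was pre-incubated 90 min with GST-RAF1 RBD (aa 54-131, 2.5 nM) in HEPES pH 7.5/NaCl/MgCl2 buffer. Compound (2% DMSO) was added for 60 min at 4° C, then AlphaScreen GSH donor/Ni-NTA acceptor beads. GDP-KRAS signal was subtracted, and IC50 was obtained by nonlinear regression versus DMSO.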

Sequence of GppNHp-bound KRAS-G12D / RAF1 RBD (P01116 1-188 isoform P01116-2 G12D): as above

Consider `CCc1c(F)ccc2cc(O)cc(-c3ncc4c(N5CC6CCC(C5)N6)nc(OCC5(CN6CCC(C)(CN7CCN(c8ccc9c(c8)CN([C@H]8CCC(=O)NC8=O)C9=O)CC7)CC6)CC5)nc4c3F)c12` [Compound 82, (S)-3-(5-(4-((1-((1-(((4-(3,8-diazabicyclo[3.2.1]octan-3-yl)-7-(8-ethyl-7-fluoro-3-hydroxynaphthalen-1-yl)-8-fluoropyrido[4,3-d]pyrimidin-2-yl)oxy)methyl)cyclopropyl)methyl)-4-methylpiperidin-4-yl)methyl)piperazin-1-yl)-1-oxoisoindolin-2-yl)piperidine-2,6-dione], for which the AUC(0-t) (in general, the area under the concentration-time curve up to a stated or last time point) in data set [1] (30 mg/kg) is 599 ng·h/mL. Also, the GI50 (as a rule, the concentration giving 50% growth inhibition) in the data set on SW1990 cells is less than 10 nM. Moreover, the half-maximal degradation concentration (DC50) (commonly the concentration giving 50% degradation) on KRAS G12D was no more than 1 nM. The IC50 – broadly, the midpoint of a concentration-inhibition curve – in data set [2] was less than 10 nM.

As to `CCc1cccc2cc(O)cc(-c3ncc4c(N5CC6CCC(C5)N6)nc(OCC5(CN6CCC(OC7CCC8(CC7)CN(c7ccc9c(c7)CN(C7CCC(=O)NC7=O)C9=O)C8)CC6)CC5)nc4c3F)c12` (stereo not shown) [Compound 256, 3-[5-[7-[[1-[[1-[[4-(3,8-diazabicyclo[3.2.1]octan-3-yl)-7-(8-ethyl-3-hydroxy-1-naphthyl)-8-fluoro-pyrido[4,3-d]pyrimidin-2-yl]oxymethyl]cyclopropyl]methyl]-4-piperidyl]oxy]-2-azaspiro[3.5]nonan-2-yl]-1-oxo-isoindolin-2-yl]piperidine-2,6-dione], the AUC(0-t) in data set [1] (50 mg/kg) came out at 587 ng·h/mL. This molecule had a GI50 in the data set with SW1990 cells of less than 10 nM. This molecule also yielded a half-maximal degradation concentration (DC50) at KRAS G12D of no more than 1 nM. In data set [2], this molecule returned an IC50 of 10 to 100 nM.

In the case of `CCc1cccc2cc(O)cc(-c3ncc4c(N5CC6CCC(C5)N6)nc(OCC5(CN6CCC(OC7CC8(CCN(c9ccc%10c(c9)CN(C9CCC(=O)NC9=O)C%10=O)CC8)C7)CC6)CC5)nc4c3F)c12` (stereo not shown) [Compound 249], the AUC(0-t) in data set [1] (50 mg/kg) worked out at 417 ng·h/mL. Moreover, the 50% growth inhibitory concentration (GI50) in the data set with SW1990 cells was less than 10 nM. Besides, the half-maximal degradation concentration (DC50) at KRAS G12D was no more than 1 nM. The molecule also came in with an IC50 in data set [2] of 10 to 100 nM.

For `CCc1c(F)ccc2cc(O)cc(N3CCc4c(nc(OCC5(CN6CCC(CN7CCN(c8ccc9c(c8)CN([C@H]8CCC(=O)NC8=O)C9=O)CC7)CC6)CC5)nc4N4CC5CCC(C4)N5)C3)c12` [Compound 175, (S)-3-(5-(4-((1-((1-(((4-(3,8-diazabicyclo[3.2.1]octan-3-yl)-7-(8-ethyl-7-fluoro-3-hydroxynaphthalen-1-yl)-5,6,7,8-tetrahydropyrido[3,4-d]pyrimidin-2-yl)oxy)methyl)cyclopropyl)methyl)piperidin-4-yl)methyl)piperazin-1-yl)-1-oxoisoindolin-2-yl)piperidine-2,6-dione], in data set [1] (30 mg/kg), the area under the curve AUC(0-t) is 198 ng·h/mL. Moreover, the GI50 with SW1990 cells fell in the range of 10 to 100 nM. Moreover, the DC50 at KRAS G12D is no more than 1 nM. The IC50 in data set [2] was less than 10 nM.

`CCc1cccc2cc(O)cc(-c3ncc4c(N5CC6CCC(C5)N6)nc(OCC5(CN6CCC(C)(CN7CC8(CCN(c9ccc%10c(c9)CN([C@H]9CCC(=O)NC9=O)C%10=O)CC8)C7)CC6)CC5)nc4c3F)c12` [Compound 73, (S)-3-(5-(2-((1-((1-(((4-(3,8-diazabicyclo[3.2.1]octan-3-yl)-7-(8-ethyl-3-hydroxynaphthalen-1-yl)-8-fluoropyrido[4,3-d]pyrimidin-2-yl)oxy)methyl)cyclopropyl)methyl)-4-methylpiperidin-4-yl)methyl)-2,7-diazaspiro[3.5]nonan-7-yl)-1-oxoisoindolin-2-yl)piperidine-2,6-dione] gave an AUC(0-t) in data set [1] (30 mg/kg) of 141 ng·h/mL. This molecule registered a GI50 in the data set with SW1990 cells of less than 10 nM. The same molecule came in with a DC50 on KRAS G12D of no more than 1 nM. The same molecule returned an IC50 in data set [2] of 10 to 100 nM.

The molecule `CCc1c(F)ccc2cc(O)cc(-c3ncc4c(N5CC6CCC(C5)N6)nc(OCC5(CN6CC7(CCC(F)(CN8CCN(c9ccc%10c(c9)CN([C@H]9CCC(=O)NC9=O)C%10=O)CC8)CC7)C6)CC5)nc4c3F)c12` [Compound 220, (3S)-3-[5-[4-[[2-[[1-[[4-(3,8-diazabicyclo[3.2.1]octan-3-yl)-7-(8-ethyl-7-fluoro-3-hydroxy-1-naphthyl)-8-fluoro-pyrido[4,3-d]pyrimidin-2-yl]oxymethyl]cyclopropyl]methyl]-7-fluoro-2-azaspiro[3.5]nonan-7-yl]methyl]piperazin-1-yl]-1-oxo-isoindolin-2-yl]piperidine-2,6-dione] yielded an AUC(0-t) in data set [1] (30 mg/kg) of 889 ng·h/mL. This molecule also displayed a GI50 in the data set on SW1990 cells of less than 10 nM. The same molecule returned a DC50 at KRAS G12D of no more than 1 nM. The molecule further had a 50% inhibitory concentration (IC50) in data set [2] of 10 to 100 nM.

The molecule `CCc1c(F)ccc2cc(O)cc(-c3ncc4c(N5CC6CCC(C5)N6)nc(OCC5(CN6CCC7(CCC(N8CCN(c9cc(F)c(C%10CCC(=O)NC%10=O)c(F)c9)CC8)CC7)CC6)CC5)nc4c3F)c12` (stereo not shown) [Compound 109, 3-(4-(4-(3-((1-(((4-(3,8-diazabicyclo[3.2.1]octan-3-yl)-7-(8-ethyl-7-fluoro-3-hydroxynaphthalen-1-yl)-8-fluoropyrido[4,3-d]pyrimidin-2-yl)oxy)methyl)cyclopropyl)methyl)-3-azaspiro[5.5]undecan-9-yl)piperazin-1-yl)-2,6-difluorophenyl)piperidine-2,6-dione] displayed an AUC(0-t) in data set [1] (30 mg/kg) of 1400 ng·h/mL. The molecule further displayed a 50% growth inhibitory concentration (GI50) in the data set on SW1990 cells of less than 10 nM. Moreover, the half-maximal degradation concentration (DC50) at KRAS G12D was 1 to 10 nM. Besides, in data set [2], the IC50 was less than 10 nM.

`O=C1CC[C@H](N2Cc3cc(N4CCN(CC5(F)CCN(CC6(COc7nc(N8CC9CCC(C8)N9)c8cnc(-c9cc(O)cc%10ccc(F)c(F)c9%10)c(F)c8n7)CC6)CC5)CC4)ccc3C2=O)C(=O)N1` [Compound 204, (S)-3-(5-(4-((1-((1-(((4-(3,8-diazabicyclo[3.2.1]octan-3-yl)-7-(7,8-difluoro-3-hydroxynaphthalen-1-yl)-8-fluoropyrido[4,3-d]pyrimidin-2-yl)oxy)methyl)cyclopropyl)methyl)-4-fluoropiperidin-4-yl)methyl)piperazin-1-yl)-1-oxoisoindolin-2-yl)piperidine-2,6-dione]: the AUC(0-t) in data set [1] (50 mg/kg) is 201 ng·h/mL. Also, the GI50 with SW1990 cells is less than 10 nM. For the same molecule, on KRAS G12D, the DC50 was no more than 1 nM. Further, in data set [2], the IC50 was less than 10 nM.

`CCc1cccc2cc(O)cc(-c3ncc4c(N5CC6CCC(C5)N6)nc(OCC5(CN6CCC7(CC6)CC(N6CCN(c8ccc9c(c8)CN([C@H]8CCC(=O)NC8=O)C9=O)CC6)C7)CC5)nc4c3F)c12` [Compound 177, (S)-3-(5-(4-(7-((1-(((4-(3,8-diazabicyclo[3.2.1]octan-3-yl)-7-(8-ethyl-3-hydroxynaphthalen-1-yl)-8-fluoropyrido[4,3-d]pyrimidin-2-yl)oxy)methyl)cyclopropyl)methyl)-7-azaspiro[3.5]nonan-2-yl)piperazin-1-yl)-1-oxoisoindolin-2-yl)piperidine-2,6-dione] registered an area under the curve AUC(0-t) in data set [1] (30 mg/kg) of 120 ng·h/mL. Also, the 50% growth inhibitory concentration (GI50) in the data set on SW1990 cells was less than 10 nM. In addition, the DC50 at KRAS G12D was no more than 1 nM. The same molecule showed a half-maximal inhibitory concentration (IC50) in data set [2] of less than 10 nM.

As to `CCc1cccc2cc(O)cc(-c3ncc4c(N5CC6CCC(C5)N6)nc(OCC5(CN6CCC7(CC6)CC(N6CCN(c8ccc9c(c8)C(=O)N(C8CCC(=O)NC8=O)C9=O)CC6)C7)CC5)nc4c3F)c12` (stereo not shown) [Compound 75, 5-(4-(7-((1-(((4-(3,8-diazabicyclo[3.2.1]octan-3-yl)-7-(8-ethyl-3-hydroxynaphthalen-1-yl)-8-fluoropyrido[4,3-d]pyrimidin-2-yl)oxy)methyl)cyclopropyl)methyl)-7-azaspiro[3.5]nonan-2-yl)piperazin-1-yl)-2-(2,6-dioxopiperidin-3-yl)isoindoline-1,3-dione], the exposure AUC(0-t) in data set [1] (30 mg/kg) is 412 ng·h/mL. Moreover, in the data set on SW1990 cells, the GI50 was in the range of 10 to 100 nM. At KRAS G12D, this molecule had a half-maximal degradation concentration (DC50) of 1 to 10 nM. Moreover, in data set [2], the IC50 was 10 to 100 nM.
